Where a name gives a salt, the structure may show the parent alone.
Test system: rats with bladder outlet obstruction
Assay: Effect on premicturition contraction in rats with bladder outlet obstruction
Assay type: in vivo
Details: iv; for inhibition of the premicturition contraction frequency (single use, ground for dose setting): 0.3 mg(/mL)/kg for the acetanilide compound, 0.001 mg(/mL)/kg for the sulfonamide hydrochloride; for ratio of the premicturition contraction frequency relative to the pre-administration value: drug A 0.3 mg/mL/kg, drug B 0.001 mg/mL/kg, AB combination at both doses, first micturition reflex after administration, 5 animals per group; for significant inhibition of the premicturition contraction (frequency): single use at 0.3 mg/kg or 0.001 mg/kg, or both combined, combination compared to any other groups
Experimental: The rats were fixed to a dorsal position under pentobarbital anesthesia (50 mg/kg ip), and a catheter (PE-20) was inserted into the bladder from the external urethral orifice. A midline incision was made in the lower abdominal wall, and the proximal urethra, together with the catheter, was tied at two sites with a silk suture (5-0), then, the catheter was removed and the surgical wound was sutured, and then ampicillin (150 mg/kg sc) as an antibiotic was administered to the animals which were then housed in a breeding cage. On the 11th to 12th day after the surgery, a midline incision was made in the lower abdominal wall under pentobarbital anesthesia (50 mg/kg ip), and the silk sutures tying the urethra were removed. The bladder was exposed, followed by drainage of urine, and a catheter (PE-50) was inserted into the bladder from the apical part the bladder and fixed. The other end of this catheter was lead to the outside from the posterior cervical region and then the surgical wound was sutured. In addition, a catheter (PE-50) for the drug administration was inserted into the jugular vein, and then the other end thereof was lead to the outside from the posterior cervical region. Ampicillin (150 mg/kg sc) was administered to the animals which were then returned to a breeding cage. Two to three days later, the rats were retained in a Bollman cage. The catheter inserted into the bladder was connected to a three-way stopcock valve, and one end was connected to a syringe pump (STC-525) and micturition reflex was induced by continuous infusion of physiological saline [3.6 to 12 mL/h (adjusted to achieve a voiding interval of 20 to 40 minutes)]. In addition, the other end was connected to a pressure transducer (TP-400T), and intravesical pressure was measured with a pressure amplifier (AP-601G). The premicturition contraction frequency [evaluated for 10 minutes prior to micturition reflex (maximum intravesical pressure); a contraction showing a drop of 1 cmH2O or more after a rise of 2 cmH2O or more was evaluated as one time] after the stabilization of micturition reflex by continuous infusion of physiological saline for 2 hours or more was taken as a pre-administration value. Vehicle or each drug was intravenously administered after intravesical pressure was lowered to a baseline, and the premicturition contraction frequency in the first micturition reflex was taken as a post-administration value, and evaluated by a ratio (%) relative to the pre-administration value. Drugs for the four groups examined are as follows. Evaluation was carried out using 5 animals for each group.

Row | Compound | inhibition of the premicturition contraction frequency (single use, ground for dose setting) | ratio of the premicturition contraction frequency relative to the pre-administration value | significant inhibition of the premicturition contraction (frequency)
1 | Nc1nc(CC(=O)Nc2ccc(CCNC[C@H](O)c3ccccc3)cc2)cs1 [drug A, (R)-2-(2-aminothiazol-4-yl)-4′-{2-[(2-hydroxy-2-phenylethyl)amino]ethyl}acetanilide] | about 15% | 85.0% | not recognized
2 | CCOc1ccccc1OCCN[C@H](C)Cc1ccc(OC)c(S(N)(=O)=O)c1 [drug B, (R)-5-(2-{[2-(2-ethoxyphenoxy)ethyl]amino}propyl)-2-methoxybenzene-1-sulfonamide hydrochloride] | about 15% | 84.8% | not recognized

From patent US20100261770A1, “PHARMACEUTICAL COMPOSITION FOR IMPROVING LOWER URINARY TRACT SYMPTOMS” (ASTELLAS PHARMA INC., priority 2007, published 2010)
